Assays:
cotton (Go) = test: Test Example 4: crop plant selectivity by upland field soil treatment (cotton), phytotoxicity; assay type: in vivo; parameters: scale not given here; settings: evaluated 21st day after application
In short: (§1)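 Weeds and cotton, sown in sand and topped with soil, received a soil-applied treatment. Evaluation after three weeks in a greenhouse followed a standard rating scale.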

green foxtail (Se) = test: Test Example 4: crop plant selectivity by upland field soil treatment (cotton), herbicidal effects; assay type: in vivo; parameters: scale not given here; settings: evaluated 21st day after application
In short: as §1

China jute (Ab) [1] = test: as above; assay type: in vivo; parameters: scale not given here; settings: evaluated 21st day after application
In short: as §1

slender amaranth (Am) = test: as above; assay type: in vivo; parameters: scale not given here; settings: evaluated 21st day after application
In short: as §1

pale smartweed (Po) = test: as above; assay type: in vivo; parameters: scale not given here; settings: evaluated 21st day after application
In short: as §1

[2] = test system: common lambsquarters (Ch); test: as above; assay type: in vivo; parameters: scale not given here; settings: evaluated 21st day after application
In short: as §1

Diaitaria ciliaris (Di) = test: as above; assay type: in vivo; settings: evaluated 21st day after application
In short: as §1

China jute (Ab) [3] = test: Test Example 11: crop plant selectivity by upland field foliage treatment (corn), herbicidal effects; assay type: in vivo; parameters: scale not given here
In short: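 Corn and the weed species were sown together in sand-filled pots and grown in a greenhouse for 2 weeks before foliar treatment. Herbicidal effect was scored on day 14 after treatment against a graded standard scale, with corn phytotoxicity scored alongside.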

[4] = test system: common lambsquarters (Ch); test: Test Example 10: crop plant selectivity by upland field foliage treatment (soybean), herbicidal effects; assay type: in vivo; settings: dose 1.6 g ai/10a, 14th day after treatment
Experimental: (§2) (Test on Crop Plant Selectivity by Upland Field Foliage Treatment)
(§3) In a plastic pot (surface area: 600 cm^2) filled with sand, soybean (Gl), pale smartweed (Po), slender amaranth (Am), common lambsquarters (Ch) and China jute (Ab) were sown and cultured in a green house for 2 weeks. […] The plants were then cultured in a green house, and the evaluation of the herbicidal effects and phytotoxicity was conducted on the 14th day after the treatment in accordance with the standards as identified in Table 47.

wheat (Tr) = test: Test Example 9: crop plant selectivity by upland field foliage treatment (wheat), phytotoxicity; settings: dose 1.6 g ai/10a, 14th day after treatment;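 note: grade of crop injury; 5 = at least 90%; 4 = 70 to 90%; 3 = 50 to 70%; 2 = 30 to 50%; 1 = 10 to 30%; 0 = under 10%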
In short: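 Wheat and weeds sown in sand-filled pots, grown 2 weeks in a greenhouse, then foliage-treated. Herbicidal effect and crop phytotoxicity were scored 14 days after treatment against a rating scale.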

soybean (Gl) = test: Test Example 10: crop plant selectivity by upland field foliage treatment (soybean), phytotoxicity; settings: dose 1.6 g ai/10a, 14th day after treatment
Experimental: as §2, §3

[5] = China jute, foliage treatment, dose 1.6 g ai/10a, evaluated on 14th day after treatment, index per Table 47
[6] = upland field foliage treatment (corn test), dose 1.6 g ai/10a, 14th day after treatment

SMILES | Phytotoxicity Go (cotton (Go); dose 1.6 g ai/10 a) | Phytotoxicity Go (cotton (Go); dose 6.3 g ai/10 a) | Herbicidal effects Se (green foxtail (Se); dose 1.6 g ai/10 a) | Herbicidal effects Se (green foxtail (Se); dose 6.3 g ai/10 a) | Herbicidal effects Ab (China jute (Ab) [1]; dose 1.6 g ai/10 a) | Herbicidal effects Ab (China jute (Ab) [1]; dose 6.3 g ai/10 a) | Herbicidal effects Am (slender amaranth (Am); dose 1.6 g ai/10 a) | Herbicidal effects Am (slender amaranth (Am); dose 6.3 g ai/10 a) | Herbicidal effects Po (pale smartweed (Po); dose 1.6 g ai/10 a) | Herbicidal effects Po (pale smartweed (Po); dose 6.3 g ai/10 a) | Herbicidal effects Ch ([2]; dose 1.6 g ai/10 a) | Herbicidal effects Ch ([2]; dose 6.3 g ai/10 a) | Herbicidal effects Di (Diaitaria ciliaris (Di); dose 1.6 g ai/10 a) | Herbicidal effects Di (Diaitaria ciliaris (Di); dose 6.3 g ai/10 a) | Herbicidal effects Ab (China jute (Ab) [3]; [5]) | Herbicidal effects Ch [4] | Phytotoxicity Tr (wheat (Tr)) | Herbicidal effects Ab (China jute (Ab) [3]; [6]) | Phytotoxicity Gl (soybean (Gl)) | Herbicidal effects Ab (China jute (Ab) [3]; upland field foliage treatment (corn test), dose 0.1 g ai/10a, 14th day after treatment)
C#CC(C)Oc1cc(-c2cn(C)c(C(F)(F)F)cc2=O)c(F)cc1Cl (racemic) [Compound 6-10] | 0 | 1 | 4 | 5 | 4 | 5 | 5 | 5 | 5 | 5 | 5 | 5 | 5 | 5 | 5 |  |  |  |  | 
Cn1c(C(F)(F)F)ccc(-c2cc(OCCCl)c(Cl)cc2F)c1=O [1-171] |  | 0 |  | 5 |  | 5 |  | 5 |  | 5 |  | 5 |  |  |  | 5 | 2 | 5 | 2 | 
CCON=Cc1cc(-c2ccc(C(F)(F)F)n(C)c2=O)c(F)cc1Cl [Compound 1-187] |  | 0 |  | 5 |  | 5 |  | 5 |  | 5 |  | 5 |  |  |  | 5 | 2 | 5 | 2 | 
CSCOc1cc(-c2ccc(C(F)(F)F)n(C)c2=O)c(F)cc1Cl [Compound 1-208] |  | 1 |  | 5 |  | 5 |  | 5 |  | 4 |  | 5 |  |  |  | 5 | 2 | 5 | 2 | 
CCCc1cc2c(-c3ccc(C(F)(F)F)n(C)c3=O)c(F)cc(Cl)c2o1 [Compound 4-3] |  | 0 |  | 5 |  | 5 |  | 5 |  | 5 |  | 5 |  |  |  | 5 | 2 | 5 | 2 | 
CCc1cc2c(Cl)cc(F)c(-c3ccc(C(F)(F)F)n(C)c3=O)c2o1 [Compound 5-2] |  | 1 |  | 5 |  | 5 |  | 5 |  | 5 |  | 5 |  |  | 5 | 5 | 2 |  | 2 | 
Cn1c(C(F)(F)F)ccc(-c2cc(C#N)c(Cl)cc2F)c1=O [Compound No. 1-119, 3-(4-chloro-5-cyano-2-fluorophenyl)-1-methyl-6-trifluoromethyl-2(1H)-pyridone] |  | 0 |  | 5 |  | 5 |  | 5 |  | 5 |  | 5 |  |  |  | 5 | 2 | 4 | 2 | 
C#CCN1C(=O)COc2cc(F)c(-c3ccc(C(F)(F)F)n(C)c3=O)cc21 [Compound No. 2-1, 3-[7-fluoro-2,3-dihydro-4-(2-propynyl)-1,4-benzoxazin-3-on-6-yl]-1-methyl-6-trifluoromethyl-2(1H)-pyridone] | 2 |  | 5 |  | 5 |  | 5 |  | 5 |  | 5 |  | 5 |  |  |  |  |  |  | 5
Cc1cc2c(-c3cn(C)c(C(F)(F)F)cc3=O)c(F)cc(Cl)c2o1 [Compound No. 9-1, 5-(7-chloro-5-fluoro-2-methylbenzofuran-4-yl)-1-methyl-2-trifluoromethyl-4(1H)-pyridone] | 0 | 0 | 5 | 5 | 5 | 5 | 5 | 5 | 4 | 5 | 5 | 5 | 5 | 5 |  |  |  |  |  | 

— patent publication US6472348B1, “Pyridone derivatives and herbicides” (Kumiai Chemical Industry Co., Ltd., priority 1996, dated 2002)
